Source: patent US12459951B2, “Compounds that interact with RAS superfamily proteins for treatment of cancers, inflammatory diseases, rasopathies, and fibrotic disease” (SHY Therapeutics, LLC, priority 2022, dated 2025)

Assays:
[1] = test system: Smad2/Smad3 phosphorylation; experiment: Phospho-Smad2/3 Inhibition Assay (western blot), Panc-1; assay type: cell-based, human; settings: at 10 μM, Panc-1 pancreatic cancer cell line; starred symbols = activation
How it was run: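 Western blotting of lysates (15-50 μg protein) read phosphorylation of Smad2 Ser465/467 and Smad3 Ser423/425. Before lysis, Panc-1 cells got 1 h of 10 ng/ml TGF-b1 following 3 h compound exposure at 37° C (10 μM final, or serial dilutions for IC50, 0.3% DMSO) after overnight 0.5% FBS starvation.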

TNF-alpha = TNF-alpha Quantification Assay (ELISA), LPS-stimulated RAW 264.7; assay type: cell-based; settings: Mus musculus, RAW264.7; at 10 μM; read-out: TNFα: % inh.
MAPK p38 phosphorylation = experiment: MAPK p38 Activation Assay (western blot), Panc-1; assay type: cell-based, human; settings: at 10 μM, Panc-1 pancreatic cancer cell line; starred symbols = activation
Experimental: Protocol for MAPK p38 Activation Assay
This assay is referred to as the “MAPK p38 Activation Assay” throughout this application.
Cell lines: Human tumor-derived pancreatic cancer cell line Panc-1 (expressing KRas G12D mutant) was purchased from American Type Culture Collection and grown in complete DMEM-High Glucose medium, supplemented with penicillin (100 U/mL), streptomycin (100 μg/mL), and 10% heat-inactivated FBS at 37° C. in a humidified incubator with 5% CO2.
Method 1: Cells were plated at 350000 cells/well density in a 12-well plate, allowed 3 hours to adhere to the plate, then starved in the appropriate medium in the presence of 0.5% FBS overnight. The small molecules to be tested were added to the cells in the final concentration of 10 μM in the presence of 0.3% DMSO for 6 hours incubation at 37° C. For IC50 value determination, serial dilutions of compounds were added to cells under the same conditions. Next, cells were stimulated with 1.5 ng/ml EGF for 15 minutes then cells were lysed with lysis buffer containing 1% Triton X-100, EDTA, and Halt™ Protease & Phosphatase Inhibitor Cocktail (Thermo Scientific). Protein concentration was assessed by BCA protein assay (Thermo Scientific). Phosphorylation level of MAPK p38 was determined by western blot.
Method 2: Cells were plated at 350000 cells/well density in a 12-well plate in 10% FBS. The next day small molecules to be tested were added to the cells in the final concentration of 10 μM in the presence of 0.3% DMSO for 6 hours incubation at 37° C. For IC50 value determination, serial dilutions of compounds were added to cells under the same conditions. Next, cells were lysed with lysis buffer containing 1% Triton X-100, EDTA, and Halt™ Protease & Phosphatase Inhibitor Cocktail (Thermo Scientific). Protein concentration was assessed by BCA protein assay (Thermo Scientific). Phosphorylation level of MAPK p38 was determined by western blot.
Western blot protocol: Equal amounts of protein (15-50 μg) were separated by SDS-PAGE and transferred to nitrocellulose membranes (Invitrogen by Thermo Fisher Scientific). The membrane was stained with Ponceau S Stain (Boston BioProducts) to verify uniform protein loading. Membranes were blocked with 10% milk and phosphorylation levels of MAPK p38 were assessed by incubating overnight at 4° C. with the following antibody: Phospho-p38 MAPK (Thr180/Tyr182), from Cell Signaling Technology. Then the membranes were incubated with HRP-conjugated secondary antibody (Jackson Immunoresearch, West Grove, PA). Bands were incubated in Amersham ECL Prime Western Blotting Detection Reagent (GE Healthcare) and visualized using the ChemiDoc MP imaging system (Bio-Rad).

Structure (SMILES) | % inh of Smad2/3 phosphorylation in Panc-1 [1] | inhibition at 10 µM (TNF-alpha) [%] | % inh of MAPK p38 in Panc-1 (MAPK p38 phosphorylation)
COc1ccnc(Nc2nc(-c3nccn3C)nn3cc(-c4ccn(CCNC(=O)CCCC[C@H]5SC[C@H]6NC(=O)N[C@H]65)n4)c(C)c23)c1 [Compound 215, N-(2-(3-(4-((4-methoxypyridin-2-yl)amino)-5-methyl-2-(1-methyl-1H-imidazol-2-yl)pyrrolo[2,1-f][1,2,4]triazin-6-yl)-1H-pyrazol-1-yl)ethyl)-5-((3aR,4R,6aS)-2-oxohexahydro-1H-thieno[3,4-d]imidazol-4-yl)pentanamide] | C (C = 46-75% inhibition) | 25 to 49 | F (F = 31-74% inhibition)
CO[C@H]1C[C@@H](Nc2nc(-c3nccn3C)nn3cc(-c4ccncc4)c(-c4ccccc4)c23)C1 [Compound 198, N-((1s,3s)-3-Methoxycyclobutyl)-2-(1-methyl-1H-imidazol-2-yl)-5-phenyl-6-(pyridin-4-yl)pyrrolo[2,1-f][1,2,4]triazin-4-amine] | A (A = 1-25% inhibition) | 25 to 49 | E (E = 1-30% inhibition)
COCC1CCN(c2nc(-c3ccccn3)nn3cc(-c4ccn(C(C)C)n4)c(C)c23)C1 (racemic) [Compound 10, rac 6-(1-Isopropyl-1H-pyrazol-3-yl)-4-(3-(methoxymethyl)pyrrolidin-1-yl)-5-methyl-2-(pyridin-2-yl)pyrrolo[2,1-f][1,2,4]triazine] | A (A = 1-25% inhibition) | 0 | G* (G* = 75-99% activation)
CO[C@H]1C[C@H](S(=O)(=O)Nc2nc(-c3nccn3C)nn3cc(-c4ccccc4)c(-c4ccccc4)c23)C1 [Compound 214, (1r,3r)-3-Methoxy-N-(2-(1-methyl-1H-imidazol-2-yl)-5,6-diphenylpyrrolo[2,1-f][1,2,4]triazin-4-yl)cyclobutane-1-sulfonamide] | D (D = 76-100% inhibition) | 0 | G (G = 75-99% inhibition)
CO[C@H]1C[C@H](Nc2nc(-c3nccn3C)nn3cc(-c4cccnc4)c(-c4ccccc4)c23)C1 [Compound 192, N-((1r,3r)-3-Methoxycyclobutyl)-2-(1-methyl-1H-imidazol-2-yl)-5-phenyl-6-(pyridin-3-yl)pyrrolo[2,1-f][1,2,4]triazin-4-amine] | A* (A* = 1-25% activation) | 25 to 49 | E* (E* = 1-30% activation)
COc1cccc(-c2cn3nc(-c4nccn4C)nc(N[C@H]4C[C@H](OC)C4)c3c2-c2ccccc2)c1C [Compound 209, 6-(3-methoxy-2-methylphenyl)-N-((1r,3r)-3-methoxycyclobutyl)-2-(1-methyl-1H-imidazol-2-yl)-5-phenylpyrrolo[2,1-f][1,2,4]triazin-4-amine] | D (D = 76-100% inhibition) | 75 to 100 | H (H = 100% inhibition)
CO[C@H]1CC[C@H](Nc2nc(-c3nccn3C)nn3cc(-c4ccncc4)c(-c4ccccc4)c23)C1 (racemic) [Compound 201, rac N-((1S,3S)-3-Methoxycyclopentyl)-2-(1-methyl-1H-imidazol-2-yl)-5-phenyl-6-(pyridin-4-yl)pyrrolo[2,1-f][1,2,4]triazin-4-amine] | A (A = 1-25% inhibition) | 50 to 74 | E (E = 1-30% inhibition)
CO[C@H]1CC[C@@H](Nc2nc(-c3nccn3C)nn3cc(-c4ccncc4)c(-c4ccccc4)c23)C1 (racemic) [Compound 200, rac N-((1R,3S)-3-Methoxycyclopentyl)-2-(1-methyl-1H-imidazol-2-yl)-5-phenyl-6-(pyridin-4-yl)pyrrolo[2,1-f][1,2,4]triazin-4-amine] | A (A = 1-25% inhibition) | 1 to 24 | E (E = 1-30% inhibition)
CO[C@@H]1C[C@H]1Nc1nc(-c2nccn2C)nn2cc(-c3cccnc3)c(-c3ccccc3)c12 (racemic) [Compound 190, N-((1R,2R)-2-Methoxycyclopropyl)-2-(1-methyl-1H-imidazol-2-yl)-5-phenyl-6-(pyridin-3-yl)pyrrolo[2,1-f][1,2,4]triazin-4-amine] | A (A = 1-25% inhibition) | 1 to 24 | E (E = 1-30% inhibition)
COc1ccnc(Oc2nc(-c3nccn3C)nn3cc(-c4ccn(C)n4)c(C)c23)c1 [Compound 220, 4-((4-Methoxypyridin-2-yl)oxy)-5-methyl-2-(1-methyl-1H-imidazol-2-yl)-6-(1-methyl-1H-pyrazol-3-yl)pyrrolo[2,1-f][1,2,4]triazine] | C (C = 46-75% inhibition) | 1 to 24 | F (F = 31-74% inhibition)
COc1cccc(-c2cn3nc(-c4nccn4C)nc(O)c3c2C)c1Cl [Compound 15, 6-(2-Chloro-3-methoxyphenyl)-5-methyl-2-(1-methyl-1H-imidazol-2-yl)pyrrolo[2,1-f][1,2,4]triazin-4-ol] | 0 (0 = 0% inhibition) | 0 | H* (H* ≥ 100% activation)
CO[C@H]1C[C@H](Nc2nc(-c3nccn3C)nn3cc(-c4ccccc4)c(-c4ccccc4)c23)C1 [Compound 203, N-((1r,3r)-3-Methoxycyclobutyl)-2-(1-methyl-1H-imidazol-2-yl)-5,6-diphenylpyrrolo[2,1-f][1,2,4]triazin-4-amine] | D (D = 76-100% inhibition) | 75 to 100 | G (G = 75-99% inhibition)
CO[C@H]1C[C@H](Nc2nc(-c3nccn3C)nn3cc(-c4ccncc4)c(-c4ccccc4)c23)C1 [Compound 199, N-((1r,3r)-3-Methoxycyclobutyl)-2-(1-methyl-1H-imidazol-2-yl)-5-phenyl-6-(pyridin-4-yl)pyrrolo[2,1-f][1,2,4]triazin-4-amine] | B (B = 26-45% inhibition) | 1 to 24 | E (E = 1-30% inhibition)
CO[C@H]1CC[C@@H](Nc2nc(-c3nccn3C)nn3cc(-c4cccnc4)c(-c4ccccc4)c23)C1 (racemic) [Compound 193, rac N-((1R,3S)-3-Methoxycyclopentyl)-2-(1-methyl-1H-imidazol-2-yl)-5-phenyl-6-(pyridin-3-yl)pyrrolo[2,1-f][1,2,4]triazin-4-amine] | A (A = 1-25% inhibition) | 25 to 49 | E (E = 1-30% inhibition)
COc1cc(Nc2nc(-c3ccccn3)nn3cc(-c4ccn(C(C)C)n4)c(C)c23)ncn1 [Compound 13, 6-(1-Isopropyl-1H-pyrazol-3-yl)-N-(6-methoxypyrimidin-4-yl)-5-methyl-2-(pyridin-2-yl)pyrrolo[2,1-f][1,2,4]triazin-4-amine] | 0 (0 = 0% inhibition) | 0 | H* (H* ≥ 100% activation)
COC[C@@H]1CC[C@@H]1CNc1nc(-c2ccccn2)nn2cc(-c3ccn(C(C)C)n3)c(C)c12 (racemic) [Compound 11, rac 6-(1-Isopropyl-1H-pyrazol-3-yl)-N-(((1S,2R)-2-(methoxymethyl)cyclobutyl)methyl)-5-methyl-2-(pyridin-2-yl)pyrrolo[2,1-f][1,2,4]triazin-4-amine] | 0 (0 = 0% inhibition) | 0 | G* (G* = 75-99% activation)
COCCCS(=O)(=O)Nc1nc(-c2nccn2C)nn2cc(-c3ccccc3)c(-c3ccccc3)c12 [Compound 213, 3-Methoxy-N-(2-(1-methyl-1H-imidazol-2-yl)-5,6-diphenylpyrrolo[2,1-f][1,2,4]triazin-4-yl)propane-1-sulfonamide] | B (B = 26-45% inhibition) | 0 | F (F = 31-74% inhibition)
